Numbered stars: 1 amine (or outer) side, 2 acyl side, 3 side chain; on linkers, the order of the positions; unused ones are H or OH. Bridge positions count the residues as written; N and C are the ends. Side chains are listed from the residue outwards. Peptide text beside a SMILES is read from it. * marks the point of attachment. C20 diacid = O=C(O)CCCCCCCCCCCCCCCCCCC(=O)*; γGlu = O=C(O)[C@H](CCC(=O)[*:2])N[*:1]
Assays:
[1] = biological target: T1, rat amylin receptor (rat calcitonin receptor + rat RAMP 3) (Rattus norvegicus, UniProt P32214+Q9JJ73); experiment: ASSAY (VI) binding to the rat amylin receptor
T1 construct: expressed in transfected cells; host or cells: BHK tk'ts 13 (transient, FuGENE 6), membranes
T1 sequence (P32214 25-479 isoform P32214-2 limits assumed): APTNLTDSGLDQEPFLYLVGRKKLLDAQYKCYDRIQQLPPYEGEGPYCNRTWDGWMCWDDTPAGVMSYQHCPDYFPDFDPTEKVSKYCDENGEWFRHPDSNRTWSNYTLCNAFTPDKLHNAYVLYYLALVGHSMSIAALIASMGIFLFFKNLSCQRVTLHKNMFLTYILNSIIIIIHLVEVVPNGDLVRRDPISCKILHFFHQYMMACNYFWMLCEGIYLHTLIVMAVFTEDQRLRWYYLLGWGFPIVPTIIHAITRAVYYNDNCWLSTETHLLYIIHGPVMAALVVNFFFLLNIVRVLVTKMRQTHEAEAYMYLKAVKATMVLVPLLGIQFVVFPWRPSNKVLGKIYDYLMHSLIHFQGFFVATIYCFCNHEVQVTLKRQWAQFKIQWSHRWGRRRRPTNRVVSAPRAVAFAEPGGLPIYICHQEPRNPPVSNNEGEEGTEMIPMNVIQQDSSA
T1 sequence (Q9JJ73 23-147 partner): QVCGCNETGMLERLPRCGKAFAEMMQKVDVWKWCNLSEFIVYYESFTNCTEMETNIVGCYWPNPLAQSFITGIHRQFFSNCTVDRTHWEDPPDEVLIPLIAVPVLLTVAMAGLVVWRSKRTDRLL
Summary of the method: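 The cell-membrane assay assessed binding at the rat amylin receptor. BHK tk′ts 13 cells were transfected transiently with rat calcitonin receptor, with FuGENE® 6 (Roche) as the transfection reagent, used per the manufacturer's recommendations. Approximately 48 hours after transfection the cells were harvested, and membranes were prepared for measuring binding.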

[2] = biological target: T2, rat calcitonin receptor (Rattus norvegicus, UniProt P32214); experiment: ASSAY (VIII) binding to the rat calcitonin receptor; conditions: Table 7, read-out: rCTR bind IC50
T2 construct: expressed in transfected cells; host or cells: BHK tk'ts 13 (transient, FuGENE 6), membranes
T2 sequence (P32214 25-479 isoform P32214-2 limits assumed): T1 sequence (P32214 25-479 isoform P32214-2 limits assumed)
Summary of the method: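 Cell membranes for binding came from BHK tk′ts 13 cells harvested approximately 48 hours after transient transfection with the rat receptor.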

[3] = Table 7, rat binding selectivity, rCTR IC50 / rAmylin-R IC50

| Ratio rCT/rAmylin binding [1, 3] | IC50 [2] [nM] | IC50 ([1]; Table 7, binding to rat amylin receptor, read-out: rAmylin-R bind IC50) [nM] | Ratio rCT/rAmylin binding ([1]; Table 7a (preferred compounds), rat binding selectivity, rCTR IC50 / rAmylin-R IC50) | Ratio rCT/rAmylin binding ([1]; ratio of rCTR bind IC50 to rAmylin-R bind IC50) | SMILES |
| --- | --- | --- | --- | --- | --- |
| 5.0 | 2.71 |  |  |  | CC[C@H](C)[C@H](NC(=O)[C@H](C)NC(=O)CNC(=O)[C@H](Cc1ccccc1)NC(=O)[C@H](CC(N)=O)NC(=O)[C@@H]1CCCN1C(=O)[C@H](CO)NC(=O)[C@H](CO)NC(=O)[C@H](Cc1c[nH]cn1)NC(=O)[C@H](CCCNC(=N)N)NC(=O)[C@H](CC(C)C)NC(=O)[C@H](Cc1ccccc1)NC(=O)[C@H](CCC(=O)O)NC(=O)[C@H](C)NC(=O)[C@H](CC(C)C)NC(=O)[C@H](CCCNC(=N)N)NC(=O)[C@H](CCC(N)=O)NC(=O)[C@@H](NC(=O)[C@H](C)NC(=O)[C@@H]1CSSC[C@H](NC(=O)[C@@H](N)CCCCNC(=O)CC[C@H](NC(=O)CCCCCCCCCCCCCCCCCCC(=O)O)C(=O)O)C(=O)N[C@@H](CC(N)=O)C(=O)N[C@@H]([C@@H](C)O)C(=O)N[C@@H](C)C(=O)N[C@@H]([C@@H](C)O)C(=O)N1)[C@@H](C)O)C(=O)N1CCC[C@H]1C(=O)N[C@@H](CO)C(=O)N[C@@H](CO)C(=O)N[C@H](C(=O)N[C@@H](CC(N)=O)C(=O)N[C@H](C(=O)NCC(=O)N[C@@H](CO)C(=O)N[C@@H](CC(N)=O)C(=O)N[C@H](C(=O)N1CCC[C@H]1C(N)=O)[C@@H](C)O)C(C)C)[C@@H](C)O [Example 12] (H-K([γGlu-C20 diacid])CNTATCATQRLAEFLRHSSPNFGAIPSSTNVGSNTP-NH2; disulfide 2-7 (inferred); N-terminus assumed) |
| 45.6 | 55.2 | 1.21 | 45.6 | 45.6 | CC[C@H](C)[C@H](NC(=O)[C@H](C)NC(=O)CNC(=O)[C@H](Cc1ccccc1)NC(=O)[C@H](CC(N)=O)NC(=O)[C@@H]1CCCN1C(=O)[C@H](CO)NC(=O)[C@H](CO)NC(=O)[C@H](Cc1c[nH]cn1)NC(=O)[C@H](CCCNC(=N)N)NC(=O)[C@H](CC(C)C)NC(=O)[C@H](Cc1ccccc1)NC(=O)[C@H](CCC(=O)O)NC(=O)[C@H](C)NC(=O)[C@H](CC(C)C)NC(=O)[C@H](CCCNC(=N)N)NC(=O)[C@H](CCC(N)=O)NC(=O)[C@@H](NC(=O)[C@H](C)NC(=O)[C@@H]1CSSC[C@H](NC(=O)[C@H](CCCCN)NC(=O)CC[C@H](NC(=O)CCCCCCCCCCCCCCCCCCC(=O)O)C(=O)O)C(=O)N[C@@H](CC(N)=O)C(=O)N[C@@H]([C@@H](C)O)C(=O)N[C@@H](C)C(=O)N[C@@H]([C@@H](C)O)C(=O)N1)[C@@H](C)O)C(=O)N1CCC[C@H]1C(=O)N[C@@H](CO)C(=O)N[C@@H](CO)C(=O)N[C@H](C(=O)N[C@@H](CC(N)=O)C(=O)N[C@H](C(=O)NCC(=O)N[C@@H](CO)C(=O)N[C@@H](CCCNC(=N)N)C(=O)N[C@H](C(=O)N[C@@H](Cc1ccc(O)cc1)C(N)=O)[C@@H](C)O)C(C)C)[C@@H](C)O [Example 16] ({C20 diacid-γGlu}-KCNTATCATQRLAEFLRHSSPNFGAIPSSTNVGSRTY-NH2; disulfide 2-7) |

From patent US9023789B2, “Amylin analogs and pharmaceutical compositions thereof” (Novo Nordisk A/S, priority 2012, dated 2015)
